According to ChEMBL document CHEMBL1201862, “PubChem BioAssay data set” (2004):
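Grown in 96-well plates, cells were treated for 48 hours with each compound at five concentrations. Insufficient inhibition: endpoint recorded as highest concentration tested. GI50 = concentration required for 50% inhibition of growth.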 Calls of active or inactive are those of the source. No stated cut-off is given here; in the data, active = GI50 up to about 1.1 µM and inactive = higher. Square brackets hold non-standard residues; d marks the D form. Peptide text beside a SMILES is read from it. * marks the point of attachment. AllylGly = C=CC[CH](N)C(=O)O; Boc = CC(C)(C)OC(=O)*; OtBu = CC(C)(C)O*

Assays:
Experiment in all cases: inhibition of tumour cell growth, NCI panel, 48 h
786-0 = test system: 786-0
MCF7 = test system: MCF7
MOLT-4 = test system: MOLT-4
SK-MEL-5 = test system: SK-MEL-5
U-251 = test system: U-251
CAKI-1 = test system: CAKI-1
HL-60 = test system: HL-60
K562 = test system: K562
COLO 205 = test system: COLO 205
OVCAR-8 = test system: OVCAR-8
A498 = test system: A498
SF-295 = test system: SF-295
DU-145 = test system: DU-145
HCC 2998 = test system: HCC 2998
SF-268 = test system: SF-268
HT-29 = test system: HT-29
SW-620 = test system: SW-620
OVCAR-5 = test system: OVCAR-5
CCRF-CEM = test system: CCRF-CEM
EKVX = test system: EKVX

Compound | GI50 (786-0) | GI50 (MCF7) | GI50 (MOLT-4) | GI50 (SK-MEL-5) | GI50 (U-251) | GI50 (CAKI-1) | GI50 (HL-60) | GI50 (K562) | GI50 (COLO 205) | GI50 (OVCAR-8) | GI50 (A498) | GI50 (SF-295) | GI50 (DU-145) | GI50 (HCC 2998) | GI50 (SF-268) | GI50 (HT-29) | GI50 (SW-620) | GI50 (OVCAR-5) | GI50 (CCRF-CEM) | GI50 (EKVX)
CCCC(=O)Nc1cc(/C=C/C(=O)N2CC(CCl)c3c2cc(OC(C)=O)c2[nH]cc(C)c32)n(C)c1 (stereo not given) | < 2.5e-05 µM (active) | 2.94e-05 µM (active) | < 2.5e-05 µM (active) | < 2.5e-05 µM (active) | < 2.5e-05 µM (active) | 7.66e-05 µM (active) | < 0.025 nM (active) | 0.0306 nM (active) | 7.03e-05 µM (active) | < 2.5e-05 µM (active) | 0.000116 µM (active) | 4.52e-05 µM (active) | < 2.5e-05 µM (active) | < 2.5e-05 µM (active) | < 2.5e-05 µM (active) | 5.49e-05 µM (active) | 2.96e-05 µM (active) | 7.24e-05 µM (active) | < 0.025 nM (active) | 0.000108 µM (active)
C=CC1(CBr)CCC(C(C)(C)Br)O1 (stereo not given) | 1.79 µM (inactive) | 15.6 µM (inactive) | 2.21 µM (inactive) | 9.86 µM (inactive) | 6.27 µM (inactive) | 7.23 µM (inactive) | 832 nM (active) | 3710 nM (inactive) | 5.43 µM (inactive) | 2.9 µM (inactive) | 19.1 µM (inactive) | 12.3 µM (inactive) | 10 µM (inactive) | 16.6 µM (inactive) | 15.7 µM (inactive) | 5.77 µM (inactive) | 3.56 µM (inactive) | 14.7 µM (inactive) | 2080 nM (inactive) | 18 µM (inactive)
OCC1OC(n2cnc3c(SCc4ccccc4)ncnc32)C(O)C1O (stereo not given) | 27.5 µM (inactive) | 3.08 µM (inactive) | 0.773 µM (active) | > 100 µM (inactive) | > 100 µM (inactive) | 6.53 µM (inactive) | 1210 nM (inactive) | 3150 nM (inactive) | 14 µM (inactive) | 1.04 µM (active) | 2.98 µM (inactive) | > 74.1 µM (inactive) | 5.35 µM (inactive) | 8.24 µM (inactive) | 21.2 µM (inactive) | 5.52 µM (inactive) | 21.6 µM (inactive) | > 96.2 µM (inactive) | 169 nM (active) | > 68.5 µM (inactive)
C=C(CN(C)C)C(=O)c1ccc(Oc2ccccc2)cc1 | 2.15 µM (inactive) | 3.3 µM (inactive) | 0.356 µM (active) | 7.21 µM (inactive) | 10.3 µM (inactive) | 2.54 µM (inactive) | 695 nM (active) | 1260 nM (inactive) | 1.04 µM (active) | 3.28 µM (inactive) | 17.7 µM (inactive) | 16.7 µM (inactive) | 14.5 µM (inactive) | 17.5 µM (inactive) | 14 µM (inactive) | 7.82 µM (inactive) | 1.31 µM (inactive) | 7.4 µM (inactive) | 272 nM (active) | 16.9 µM (inactive)
C=CCC(NC(=O)C(CC(=O)OC(C)(C)C)NC(=O)OC(C)(C)C)C(=O)OC (stereo not given) (Boc-Asp(OtBu)-[AllylGly]-OMe; configuration not given here) | > 100 µM (inactive) | 55.8 µM (inactive) | > 49.9 µM (inactive) | 27.6 µM (inactive) | > 42.9 µM (inactive) | > 100 µM (inactive) | 30100 nM (inactive) | 47800 nM (inactive) | 21.1 µM (inactive) | 16 µM (inactive) | > 100 µM (inactive) | > 100 µM (inactive) | > 100 µM (inactive) | 25.9 µM (inactive) | 51.2 µM (inactive) | > 100 µM (inactive) | 56.1 µM (inactive) | > 100 µM (inactive) | 45800 nM (inactive) | > 100 µM (inactive)
c1csc(-c2cscc2-c2ccsc2)c1 | > 63.1 µM (inactive) | 30.6 µM (inactive) | 26.2 µM (inactive) | 75.9 µM (inactive) | > 100 µM (inactive) | > 95.3 µM (inactive) | 30500 nM (inactive) | 31600 nM (inactive) | > 100 µM (inactive) | 98.2 µM (inactive) | > 96.8 µM (inactive) | > 66.8 µM (inactive) | > 100 µM (inactive) | 28.4 µM (inactive) | 75 µM (inactive) | > 84.9 µM (inactive) | 62.2 µM (inactive) | > 69.2 µM (inactive) | 41800 nM (inactive) | 41.2 µM (inactive)
Cc1ccc2c3ccc4c(c3n(C)c2c1)C(=O)C=CC4=O | 2.33 µM (inactive) | 3.29 µM (inactive) | 0.475 µM (active) | > 10 µM (inactive) | > 10 µM (inactive) | 3.36 µM (inactive) | 1040 nM (active) | 1030 nM (active) | 2.5 µM (inactive) | 4.47 µM (inactive) | > 10 µM (inactive) | > 10 µM (inactive) | > 10 µM (inactive) | > 10 µM (inactive) | > 10 µM (inactive) | > 10 µM (inactive) | 1.74 µM (inactive) | > 10 µM (inactive) | 335 nM (active) | > 10 µM (inactive)
O=C1C(Cl)=C(NCCO)C(=O)c2c(O)ccc(O)c21 | 5.53 µM (inactive) | 1.93 µM (inactive) | 3.33 µM (inactive) | 1.41 µM (inactive) | 6.27 µM (inactive) | > 10 µM (inactive) | 2600 nM (inactive) | 2590 nM (inactive) | 1.74 µM (inactive) | 3.84 µM (inactive) | 1.36 µM (inactive) | 1.95 µM (inactive) | 2.36 µM (inactive) | 3.1 µM (inactive) | 3.97 µM (inactive) | 2.48 µM (inactive) | 2.37 µM (inactive) | 2.37 µM (inactive) | 4140 nM (inactive) | 6.37 µM (inactive)
CCCCCCc1cc2cc(-c3cn4ccccc4n3)c(=O)oc2cc1O | 2.12 µM (inactive) | 5.43 µM (inactive) | 7.91 µM (inactive) | 8.95 µM (inactive) | 3.56 µM (inactive) | 4.67 µM (inactive) | 30700 nM (inactive) | 4610 nM (inactive) | > 100 µM (inactive) | 6.3 µM (inactive) | 20.1 µM (inactive) | 15.1 µM (inactive) | 5.11 µM (inactive) | 18.4 µM (inactive) | 2.32 µM (inactive) | > 55.8 µM (inactive) | 9.93 µM (inactive) | 21.8 µM (inactive) | 19500 nM (inactive) | 18.4 µM (inactive)
CCOC(=O)CN1C(=O)c2ccc(NC(=O)C(=O)O)cc2S1(=O)=O | > 100 µM (inactive) | > 100 µM (inactive) | > 100 µM (inactive) | > 100 µM (inactive) | > 100 µM (inactive) | > 100 µM (inactive) | > 100000 nM (inactive) | > 100000 nM (inactive) | > 100 µM (inactive) | > 100 µM (inactive) | > 100 µM (inactive) | > 100 µM (inactive) | > 100 µM (inactive) | > 100 µM (inactive) | > 100 µM (inactive) | > 100 µM (inactive) | > 100 µM (inactive) | > 100 µM (inactive) | > 100000 nM (inactive) | > 100 µM (inactive)
O=C(/C=C1\N=C(c2ccccc2)N(c2ccc3c(c2)Sc2cc(N4C(=O)/C(=C/C(=O)/C=C/c5ccccc5)N=C4c4ccccc4)ccc2N3)C1=O)/C=C/c1ccccc1 | 42.2 µM (inactive) | 23.9 µM (inactive) | 41.4 µM (inactive) | 18.7 µM (inactive) | 24.2 µM (inactive) | 42.6 µM (inactive) | 40600 nM (inactive) | 30800 nM (inactive) | > 100 µM (inactive) | 42.5 µM (inactive) | 27.9 µM (inactive) | 23.4 µM (inactive) | > 100 µM (inactive) | > 100 µM (inactive) | 69.5 µM (inactive) | > 100 µM (inactive) | 67.6 µM (inactive) | 22.4 µM (inactive) | 24400 nM (inactive) | 85.7 µM (inactive)
COc1ccc(NC/C=C/C(=C/COC(C)=O)OC(C)=O)cc1 | 1.18 µM (inactive) | 2.63 µM (inactive) | 4.75 µM (inactive) | 15.3 µM (inactive) | 2.44 µM (inactive) | 1.89 µM (inactive) | 2270 nM (inactive) | 1850 nM (inactive) | 1.88 µM (inactive) | 4.23 µM (inactive) | 1.39 µM (inactive) | 2.12 µM (inactive) | 3.11 µM (inactive) | 3.03 µM (inactive) | 2.52 µM (inactive) | 2.19 µM (inactive) | 1.69 µM (inactive) | 1.75 µM (inactive) | 1770 nM (inactive) | 2.03 µM (inactive)
COc1cc(C2c3cc4c(cc3CC3COC(=O)N32)OCO4)cc(OC)c1OC (stereo not given) | 3.09 µM (inactive) | 3.84 µM (inactive) | 3.67 µM (inactive) | 1.96 µM (inactive) | 3.79 µM (inactive) | 3.65 µM (inactive) | 2080 nM (inactive) | 1570 nM (inactive) | 1.92 µM (inactive) | 4.03 µM (inactive) | 6.31 µM (inactive) | 0.729 µM (active) | 5.33 µM (inactive) | 2.93 µM (inactive) | 8.04 µM (inactive) | 2.12 µM (inactive) | 2.13 µM (inactive) | > 53.1 µM (inactive) | 2560 nM (inactive) | 4.76 µM (inactive)
Cc1nc2c(O)c3c(c(O)c2nc1C)C1C=CC3CC1 | 13.9 µM (inactive) | 9.75 µM (inactive) | 1.06 µM (active) | 14 µM (inactive) | 9.44 µM (inactive) | 7.57 µM (inactive) | 973 nM (active) | 2090 nM (inactive) | 19.7 µM (inactive) | 7.45 µM (inactive) | 42.9 µM (inactive) | 29.7 µM (inactive) | > 75.3 µM (inactive) | > 40.2 µM (inactive) | 10.4 µM (inactive) | 21.4 µM (inactive) | 12.4 µM (inactive) | 18.3 µM (inactive) | 1250 nM (inactive) | 11 µM (inactive)
